In patent US10570401B2, “Compositions and method for destabilizing, altering, and dispersing biofilms” (priority 2013, dated 2020):

Tests used:
[1] = system: bacterial biofilm communities; assay: L-arginine versus D-arginine on bacterial biofilm communities; format: cell-based; details: FIG. 11
From the text: Therefore the destabilizing effects of arginine are specific to the L-form.

[2] = system: S. gordonii biofilms; assay: S. gordonii biofilm formation in saliva, Bioflux microfluidics system; format: cell-based
Description: (§1) The effects of arginine-dependent dosing of S. gordonii biofilms is assessed in a modified Bioflux microfluidics system. Human saliva is collected and pooled from ≥6 different volunteers (Cuadra-Saenz et al., Microbiology. 2012; 158(Pt 7):1783-95), diluted to 25%, and additional supplements (e.g. sucrose, haemin, BHI) added as required to simulate different conditions. Note, we grow robust biofilms in even non-supplemented saliva and pooling the saliva minimizes variation in salivary components. To obtain an indication of free arginine levels in pooled saliva, arginine is measured in ≥3 different pooled saliva samples using standard techniques (Jakubovics et al., supra; Van Wuyckhuyse et al., Journal of dental research. 1995; 74(2):686-90). The 24 channels of the Bioflux system are coated with saliva, inoculated with monocultures of S. gordonii (or multi-species biofilms harvested form saliva) and biofilms are developed at 37° C. with cell free saliva. After 20 h, cells are stained with live/dead stain and visualized using a Leica SPE CLSM. Biomass and structural biofilm parameters are quantified using COMSTAT (Heydorn et al., Microbiology. 2000; 146 (Pt 10):2395-407), ImageJ (Collins, Biotechniques. 2007; 43(1 Suppl):25-30), and IMARIS software (Bitplane, Switzerland).

[3] = system: multi-species oral biofilm communities; assay: Multi-species oral biofilms in static (non-flowing) microplate system, CLSM; format: cell-based; details: 500 mM, static microplate system (FIG. 6)
From the text: Upper renderings (A1-H1) are of the x-y plane. Middle renderings (A2-H2) are of the x-z plane. Lower renderings (A3-H3) represent an angled view (x-y-z). Bars represent 50 μm.

[4] = system: AI-2 production by multi-species biofilms; assay: AI-2 bioluminescence assay with Vibrio harveyi BB170 on microfluidics efflux of multi-species biofilms; format: cell-based; details: fold induction of bioluminescence, increasing arginine concentrations (FIG. 10)
From the text: The AI-2 data are normalized to the “control” (non-supplemented saliva).
Values were produced by first taking averages of 4 trials at each concentration and dividing them by the average for the negative control, creating an induction number. […] High AI-2 may also have a destabilizing effect on the community, which could explain or contribute to the structural changes seen in the biofilms.

[5] = system: pre-formed multi-species oral biofilms
[6] = system: saliva derived community; assay: Community composition of saliva-derived biofilms by 454 pyrosequencing; format: cell-based
Description: Black-colored bars represent data derived from the analysis of biofilms developed in flowing non-supplemented saliva while the grey-colored bars represent data derived from the analysis of biofilms developed in 500 mM supplemented saliva. (B) Showing changes in phyla (color coding as before). (C) Showing changes in composition of genera (key is from left to right in order from bottom to top in bar; Neisseria, Granulicatella, Streptococcus, etc).
(§2) This example describes the impact of L-arginine on oral biofilms that contain species grown under conditions representative of the human oral cavity. […] Destabilization was expressed as loss of biofilm structure and change in bacterial community membership, as determined by confocal laser scanning microscopy and 454 pyrosequencing.

[7] = system: multi-species oral biofilms; assay: Multi-species oral biofilms developed 20 h in flowing saliva (Bioflux microfluidic system), CLSM live/dead; format: cell-based
Description: as §1, §2
Green signal indicates viable live cells and red signal indicates damaged/dead cells. […] Data derived from at-least 18 renderings across three experiments and standard deviations are shown in brackets. *P<0.05; **P<0.01; […]: significant differences from the CFS control.

[8] = system: S. gordonii DL1; assay: Fluorescent reporter plasmid (pPE1010) expression in S. gordonii DL1 biofilms on exogenous AI-2; format: cell-based; details: exogenously added AI-2 (FIG. 12B)
From the text: A plasmid (See e.g., FIG. 12) was utilized to monitor expression of reporter genes in the presence of arginine or AI-2. The pPE1010 backbone described in England et al. (Proc Natl Acad Sci USA. 2004 Nov. 30; 101(48):16917-22. Epub 2004 Nov. 16) was modified to express fluorescent genes such as GFP or Mcherry in S. gordonii DL1 or other species of streptococci. Specifically, promoters from differentially regulated genes are inserted upstream of a GFP or Mcherry gene harbored on pPE1010 (or similar streptococcal plasmid shuttle vector system) to be differentially expressed (FIGS. 12A and 12B). […] The plasmid provides constitutive-producing fluorescent probes for monitoring bacteria in biofilms and reporter systems that report arginine (or AI-2) concentrations in biofilms such as those found in dental plaque biofilms.

Compound: N=C(N)NCCC[C@@H](N)C(=O)O [D-arginine, reference compound]
- disruption of bacterial biofilm communities [1]: does not have the same effect

Compound: N=C(N)NCCC[C@H](N)C(=O)O [L-arginine]
- disruption of bacterial biofilm communities [1]: disrupts bacterial biofilm communities
- extent of biofilm present ([2]; 500 mM arginine, saliva, 20 h (FIG. 3)): significantly reduce the extent of biofilm present
- biofilm formation by S. gordonii ([2]; high (millimolar) concentrations of arginine, dose-dependent): abrogate biofilm formation by S. gordonii
- biofilm architecture [3]: makes the biofilm more diffuse with respect to architecture
- biofilm biomass [3]: reduce biofilm biomass
- killing [3]: No substantial killing was observed
- amount of AI-2 produced from multi-species biofilms [4]: increases as the concentrations of arginine used to treat them increases
- destabilization of pre-formed biofilms ([5]; 500 mM (FIG. 8)): destabilizes pre-formed multi-species oral biofilms of differing developmental age
- penetration of CPC into biofilm ([5]; 500 mM L-arginine, CPC 0.01 or 0.05% (FIG. 9)): enhance the penetration of CPC
- proportion of Veillonella species and non-cariogenic streptococci in biofilms ([6]; 500 mM treated biofilms): increased
- bacterial diversity (operational taxonomic units, OTU) ([6]; prolonged exposure to 500 mM (FIG. 5A)): increase in bacterial diversity

Compound: Cl.N=C(N)NCCC[C@H](N)C(=O)O [LAHCL, L-arginine monohydrochloride]
- changes in pH ([7]; HCl balanced L-arginine in human saliva): No substantial changes in pH
- destabilization of oral biofilms (loss of biofilm structure, change in community membership) ([7]; human saliva inoculum, 25% filter-sterilized saliva): destabilizes oral biofilms in a concentration dependent manner
- antimicrobial effects ([7]; only detected as a consequence of biofilm perturbation): Very limited antimicrobial effects

Compound: autoinducer-2 [AI-2]
- reporter expression from 50S ribosomal protein (SGO_1192) promoter [8]: minimal differential expression
- reporter expression from catabolite control protein A (SGO_0773; ccpA) promoter [8]: drastically different gene expression
